In ChEMBL document CHEMBL5223091, “Targeting the Mitotic Kinesin KIF18A in Chromosomally Unstable Cancers: Hit Optimization Toward an In Vivo Chemical Probe” (J Med Chem, 2022):

Key:
[1] = target: T1, Kinesin-like protein KIF18A (Homo sapiens, UniProt Q8NI77); assay: Inhibition of recombinant His-tagged human KIF18A (1 to 467 residues) expressed in Trichoplusia ni insect cells assessed as inhibition of microtubule-stimulated ATPase activity preincubated for 30 mins followed by ATP addition and further incubated for 15 mins by ADP-Glo reagent based assay; design: species or system Insect cell
T1 sequence (Q8NI77 whole entry): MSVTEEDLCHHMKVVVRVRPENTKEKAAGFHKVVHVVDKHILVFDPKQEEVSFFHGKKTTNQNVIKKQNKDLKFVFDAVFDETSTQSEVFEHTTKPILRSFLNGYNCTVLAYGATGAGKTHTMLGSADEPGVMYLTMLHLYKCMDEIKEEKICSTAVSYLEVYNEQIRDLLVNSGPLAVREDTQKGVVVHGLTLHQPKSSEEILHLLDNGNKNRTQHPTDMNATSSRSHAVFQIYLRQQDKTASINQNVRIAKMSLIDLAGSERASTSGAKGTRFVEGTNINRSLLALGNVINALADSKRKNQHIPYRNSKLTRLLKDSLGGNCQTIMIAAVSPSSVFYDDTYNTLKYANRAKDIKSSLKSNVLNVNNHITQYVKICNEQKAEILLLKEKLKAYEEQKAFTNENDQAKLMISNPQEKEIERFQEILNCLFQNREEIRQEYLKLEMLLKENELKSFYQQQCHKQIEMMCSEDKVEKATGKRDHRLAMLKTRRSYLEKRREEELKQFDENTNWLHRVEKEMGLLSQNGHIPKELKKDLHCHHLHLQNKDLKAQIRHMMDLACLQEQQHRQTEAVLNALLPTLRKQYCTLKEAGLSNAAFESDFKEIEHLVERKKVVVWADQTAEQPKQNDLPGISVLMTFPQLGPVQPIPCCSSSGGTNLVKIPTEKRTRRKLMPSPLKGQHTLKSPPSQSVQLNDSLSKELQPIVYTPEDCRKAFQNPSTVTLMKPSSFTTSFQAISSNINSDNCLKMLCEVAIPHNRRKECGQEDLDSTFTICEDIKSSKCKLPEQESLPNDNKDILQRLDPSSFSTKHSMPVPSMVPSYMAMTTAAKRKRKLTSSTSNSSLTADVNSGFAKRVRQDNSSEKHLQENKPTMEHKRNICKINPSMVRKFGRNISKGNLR

[2] = Metabolic stability in mouse liver microsomes assessed as intrinsic clearance at 0.5 uM incubated upto 40 mins by LCMS analysis; type: ADME, Microsome; conditions: read-out: CLH
[3] = Metabolic stability in human liver microsomes assessed as intrinsic clearance at 0.5 uM incubated upto 40 mins by LCMS analysis; type: ADME, Microsome; conditions: read-out: CLH
OVCAR-3 [4] = assay: Induction of mitotic arrest in human OVCAR-3 cells assessed as p-histone H3 incubated for 24 hrs by mitotic - imaging assay; type: functional, cell-based; conditions: OVCAR-3, 24 h
OVCAR-3 [5] = assay: Antiproliferative activity against human OVCAR-3 cells by nuclear count assay; type: functional, cell-based
[6] = Clearance in CD-1 mouse at 1 mg/kg, iv and 10 mg/kg, po; type: ADME, organism-based; conditions: in vivo
[7] = Volume of distribution at steady state in CD-1 mouse at 1 mg/kg, iv and 10 mg/kg, po; type: ADME, organism-based; conditions: in vivo
[8] = Half life in CD-1 mouse at 1 mg/kg, iv and 10 mg/kg, po; type: ADME, organism-based; conditions: in vivo
[9] = Cmax in CD-1 mouse at 1 mg/kg, iv and 10 mg/kg, po; type: ADME, organism-based; design: dose 10 mg/kg, route po; conditions: in vivo
[10] = Oral bioavailability in CD-1 mouse at 10 mg/kg; type: ADME, organism-based; conditions: in vivo
[11] = Unbound fraction in plasma (unknown origin) by ultracentrifugation; type: ADME, cell-free
[12] = target: T2, Kinesin-like protein KIF11 (Homo sapiens, UniProt P52732); assay: Inhibition of recombinant GST-tagged human Eg5 assessed as inhibition of microtubule-stimulated ATPase activity preincubated for 30 mins followed by ATP addition and further incubated for 15 mins by ADP-Glo reagent based assay
T2 sequence (P52732 whole entry): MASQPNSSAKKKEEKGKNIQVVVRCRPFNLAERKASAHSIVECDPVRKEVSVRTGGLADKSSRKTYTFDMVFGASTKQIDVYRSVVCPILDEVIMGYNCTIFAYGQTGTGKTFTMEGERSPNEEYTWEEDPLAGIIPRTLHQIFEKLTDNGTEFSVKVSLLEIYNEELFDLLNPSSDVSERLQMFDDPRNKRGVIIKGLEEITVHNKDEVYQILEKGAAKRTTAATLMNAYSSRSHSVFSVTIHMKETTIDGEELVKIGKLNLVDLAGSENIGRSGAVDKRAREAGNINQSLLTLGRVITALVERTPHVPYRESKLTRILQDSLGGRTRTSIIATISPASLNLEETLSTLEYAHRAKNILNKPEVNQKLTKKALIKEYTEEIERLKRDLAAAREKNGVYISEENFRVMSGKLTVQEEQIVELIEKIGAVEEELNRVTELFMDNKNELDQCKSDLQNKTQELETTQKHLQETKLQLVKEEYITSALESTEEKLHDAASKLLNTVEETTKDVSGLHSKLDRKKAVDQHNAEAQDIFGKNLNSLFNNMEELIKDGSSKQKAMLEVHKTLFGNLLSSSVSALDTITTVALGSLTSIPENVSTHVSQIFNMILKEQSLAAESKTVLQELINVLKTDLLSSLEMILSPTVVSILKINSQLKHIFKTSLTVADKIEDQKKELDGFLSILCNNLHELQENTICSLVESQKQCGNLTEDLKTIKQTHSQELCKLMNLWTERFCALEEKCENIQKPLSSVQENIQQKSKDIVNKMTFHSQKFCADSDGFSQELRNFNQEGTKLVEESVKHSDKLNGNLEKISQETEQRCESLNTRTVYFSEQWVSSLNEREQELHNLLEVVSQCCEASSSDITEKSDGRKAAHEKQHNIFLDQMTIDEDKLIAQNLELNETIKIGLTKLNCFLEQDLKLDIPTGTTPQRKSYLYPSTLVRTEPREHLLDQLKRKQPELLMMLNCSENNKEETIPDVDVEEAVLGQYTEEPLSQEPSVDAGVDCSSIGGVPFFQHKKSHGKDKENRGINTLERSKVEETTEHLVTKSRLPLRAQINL

[13] = target: Centromere-associated protein E (Homo sapiens, UniProt Q02224); assay: Inhibition of recombinant GST-tagged human CENP-E assessed as inhibition of microtubule-stimulated ATPase activity preincubated for 30 mins followed by ATP addition and further incubated for 15 mins by ADP-Glo reagent based assay
MDA-MB-157 = assay: Induction of mitotic arrest in TP53 mutant human MDA-MB-157 cells assessed as multipolar spindle arrays by measuring pericentriolar material incubated for 24 hrs by mitotic index assay; type: functional, cell-based; conditions: MDA-MB-157, 24 h

Centromere-associated protein E, sequence (Q02224 whole entry): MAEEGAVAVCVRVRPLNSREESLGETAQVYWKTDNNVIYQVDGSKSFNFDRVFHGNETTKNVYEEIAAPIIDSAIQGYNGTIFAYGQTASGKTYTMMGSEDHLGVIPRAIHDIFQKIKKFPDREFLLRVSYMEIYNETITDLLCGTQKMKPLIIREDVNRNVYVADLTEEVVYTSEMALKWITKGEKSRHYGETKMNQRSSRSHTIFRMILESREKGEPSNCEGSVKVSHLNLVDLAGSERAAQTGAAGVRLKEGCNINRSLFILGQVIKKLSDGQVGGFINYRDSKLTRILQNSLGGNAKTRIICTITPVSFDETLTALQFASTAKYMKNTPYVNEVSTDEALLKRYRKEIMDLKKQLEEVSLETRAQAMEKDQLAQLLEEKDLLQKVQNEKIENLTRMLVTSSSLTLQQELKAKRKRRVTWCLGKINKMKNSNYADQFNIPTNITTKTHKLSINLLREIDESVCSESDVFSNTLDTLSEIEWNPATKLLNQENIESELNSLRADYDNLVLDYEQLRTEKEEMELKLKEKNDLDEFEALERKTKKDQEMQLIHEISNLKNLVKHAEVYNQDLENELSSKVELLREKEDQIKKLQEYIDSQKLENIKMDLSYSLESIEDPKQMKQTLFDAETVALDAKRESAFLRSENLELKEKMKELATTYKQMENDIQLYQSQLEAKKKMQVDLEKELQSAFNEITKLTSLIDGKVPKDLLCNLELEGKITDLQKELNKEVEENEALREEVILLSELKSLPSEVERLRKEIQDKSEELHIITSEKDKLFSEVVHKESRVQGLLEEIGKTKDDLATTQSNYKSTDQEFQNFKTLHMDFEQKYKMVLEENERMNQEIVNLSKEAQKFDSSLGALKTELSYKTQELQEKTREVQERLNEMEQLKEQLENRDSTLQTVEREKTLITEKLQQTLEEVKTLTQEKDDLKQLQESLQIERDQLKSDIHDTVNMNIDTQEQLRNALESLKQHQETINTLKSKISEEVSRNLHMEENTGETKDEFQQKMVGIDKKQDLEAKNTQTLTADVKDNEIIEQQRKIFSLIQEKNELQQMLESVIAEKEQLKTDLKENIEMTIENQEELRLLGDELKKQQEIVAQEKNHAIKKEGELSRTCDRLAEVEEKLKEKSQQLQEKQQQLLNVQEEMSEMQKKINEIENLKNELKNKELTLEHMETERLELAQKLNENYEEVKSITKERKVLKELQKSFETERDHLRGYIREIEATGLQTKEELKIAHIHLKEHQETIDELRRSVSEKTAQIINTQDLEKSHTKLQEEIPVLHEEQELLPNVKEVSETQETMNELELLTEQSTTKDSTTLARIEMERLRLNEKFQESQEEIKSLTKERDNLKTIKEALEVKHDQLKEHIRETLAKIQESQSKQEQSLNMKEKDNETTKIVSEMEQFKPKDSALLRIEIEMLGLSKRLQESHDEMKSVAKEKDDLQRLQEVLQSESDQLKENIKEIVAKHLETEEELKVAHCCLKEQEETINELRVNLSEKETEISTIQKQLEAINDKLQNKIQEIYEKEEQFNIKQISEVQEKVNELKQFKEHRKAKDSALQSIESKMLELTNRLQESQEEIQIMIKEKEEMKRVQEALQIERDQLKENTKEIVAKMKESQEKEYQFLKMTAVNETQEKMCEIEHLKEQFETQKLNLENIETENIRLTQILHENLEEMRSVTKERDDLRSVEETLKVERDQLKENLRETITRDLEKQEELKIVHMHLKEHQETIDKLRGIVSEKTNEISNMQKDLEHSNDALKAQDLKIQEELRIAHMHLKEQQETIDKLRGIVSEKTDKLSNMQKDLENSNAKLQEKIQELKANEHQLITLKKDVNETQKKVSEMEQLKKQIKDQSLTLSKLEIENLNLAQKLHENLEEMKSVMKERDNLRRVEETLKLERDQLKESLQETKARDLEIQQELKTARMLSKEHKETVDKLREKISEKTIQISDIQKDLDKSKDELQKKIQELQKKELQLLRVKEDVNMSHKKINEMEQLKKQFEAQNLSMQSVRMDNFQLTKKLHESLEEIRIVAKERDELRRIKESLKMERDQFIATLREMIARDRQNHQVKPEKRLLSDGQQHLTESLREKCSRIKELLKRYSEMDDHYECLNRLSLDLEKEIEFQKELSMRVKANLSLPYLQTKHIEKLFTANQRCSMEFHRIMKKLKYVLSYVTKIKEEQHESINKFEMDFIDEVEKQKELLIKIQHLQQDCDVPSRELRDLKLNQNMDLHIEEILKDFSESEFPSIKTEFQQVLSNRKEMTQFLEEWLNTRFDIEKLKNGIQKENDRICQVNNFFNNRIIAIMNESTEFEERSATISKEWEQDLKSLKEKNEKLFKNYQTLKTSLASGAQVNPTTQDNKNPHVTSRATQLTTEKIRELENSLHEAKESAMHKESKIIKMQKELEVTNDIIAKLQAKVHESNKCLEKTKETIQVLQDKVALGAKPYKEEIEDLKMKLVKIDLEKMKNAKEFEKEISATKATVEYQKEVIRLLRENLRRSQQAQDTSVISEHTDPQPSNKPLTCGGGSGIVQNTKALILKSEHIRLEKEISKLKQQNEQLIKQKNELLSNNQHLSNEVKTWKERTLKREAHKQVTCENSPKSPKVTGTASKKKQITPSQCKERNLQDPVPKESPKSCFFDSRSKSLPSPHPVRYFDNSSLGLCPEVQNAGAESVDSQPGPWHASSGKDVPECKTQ

| SMILES | IC50 [1] | microsomal CLint at 0.5 µM [2] | microsomal CLint at 0.5 µM [3] | EC50 (OVCAR-3 [4]) | EC50 (OVCAR-3 [5]) | CL [6] | Vdss [7] | half-life [8] | Cmax [9] | bioavailability [10] | fraction unbound [11] | IC50 [12] | IC50 [13] | IC50 (MDA-MB-157) |
| --- | --- | --- | --- | --- | --- | --- | --- | --- | --- | --- | --- | --- | --- | --- |
| CC(C)(C)NS(=O)(=O)c1cccc(NC(=O)c2ccc(NC3(CO)CC3)cc2N2CCC3(CC2)CC3)n1 | 0.166 µM | 58 µL/min/mg | 83 µL/min/mg | 0.075 µM | 0.062 µM | 5 mL/min/kg | 0.3 L/kg | 1.5 h | 5.45 µM | 22% | 0.011 |  |  |  |
| O=C(Nc1cccc(S(=O)(=O)C2COC2)c1)c1cccnc1N1CCC2(CC1)CC2 | 8.88 µM | 385 µL/min/mg | 183 µL/min/mg | 14.8 µM | 12.6 µM |  |  |  |  |  |  |  |  |  |
| CC(C)(C)NS(=O)(=O)c1cccc(NC(=O)c2cccnc2N2CCC3(CC2)CC3)c1 | 0.32 µM | > 399 µL/min/mg | > 399 µL/min/mg | 1.03 µM | 0.84 µM |  |  |  |  |  |  |  |  |  |
| CC(C)(C)NS(=O)(=O)c1cccc(NC(=O)c2ccc(NC(C)(C)CO)cc2N2CCC3(CC2)CC3)n1 | 0.14 µM | > 399 µL/min/mg | 189 µL/min/mg | 0.028 µM | 0.023 µM |  |  |  |  |  |  |  |  |  |
| CC(C)(O)CNc1ccc(C(=O)Nc2cccc(S(=O)(=O)C3CCCC3)n2)c(N2CCC3(CC2)CC3)c1 | 0.165 µM | > 399 µL/min/mg | > 399 µL/min/mg | 0.228 µM | 0.229 µM |  |  |  |  |  |  |  |  |  |
| CN(CCO)c1ccc(C(=O)Nc2cccc(S(=O)(=O)C3CCCC3)n2)c(N2CCC3(CC2)CC3)c1 | 0.253 µM | > 399 µL/min/mg | > 399 µL/min/mg | 0.449 µM | 0.358 µM |  |  |  |  |  |  |  |  |  |
| O=C(Nc1cccc(S(=O)(=O)C2CCCC2)c1)c1cccnc1N1CCC(F)(F)CC1 | 5.31 µM | > 399 µL/min/mg | > 399 µL/min/mg | 4.63 µM | 4.78 µM |  |  |  |  |  |  |  |  |  |
| O=[N+]([O-])c1cc(Cl)ccc1S(=O)(=O)c1ccccc1 | 1.7 µM |  |  |  |  |  |  |  |  |  |  |  |  |  |
| COc1ccc(C(=O)Nc2cccc(S(=O)(=O)C3CCCC3)n2)c(N2CCC3(CC2)CC3)c1 | 0.36 µM | > 399 µL/min/mg | > 399 µL/min/mg | 2.66 µM | 2.35 µM |  |  |  |  |  |  |  |  |  |
| O=C(Nc1cccc(S(=O)(=O)N2CCCC2)c1)c1cccnc1N1CCC2(CC1)CC2 | 1.83 µM | > 399 µL/min/mg | > 399 µL/min/mg | 5.46 µM | 4.42 µM |  |  |  |  |  |  |  |  |  |
| O=C(Nc1cccc(S(=O)(=O)N2CCCCC2)c1)c1cn[nH]c1-c1ccc(Cl)cc1 | 0.52 µM | > 399 µL/min/mg | 255 µL/min/mg |  |  |  |  |  |  |  |  | > 100 µM | > 100 µM | 8.8 µM |
| O=C(Nc1cccc(C2(C(F)(F)F)N=N2)c1)c1ccc(NS(=O)(=O)CCO)nc1N1CCC2(CC1)CC2 | 0.032 µM |  |  |  |  |  |  |  |  |  |  |  |  |  |
| CC(C)(C)NS(=O)(=O)c1cccc(NC(=O)c2ccc(NC(C)(C)CO)nc2N2CCC3(CC2)CC3)n1 | 0.081 µM | > 399 µL/min/mg | > 399 µL/min/mg | 0.043 µM | 0.042 µM |  |  |  |  |  |  |  |  |  |
| O=C(Nc1cccc(S(=O)(=O)C2CCCC2)c1)c1cccnc1N1CCCCC1 | 6.16 µM | > 399 µL/min/mg | > 399 µL/min/mg | 6.35 µM | 5.03 µM |  |  |  |  |  |  | > 100 µM | > 100 µM | 4.8 µM |
| CC(C)(CO)Nc1ccc(C(=O)Nc2cccc(S(=O)(=O)NC3CCCC3)n2)c(N2CCC3(CC2)CC3)c1 | 0.08 µM | > 399 µL/min/mg | > 399 µL/min/mg | 0.048 µM | 0.032 µM |  |  |  |  |  |  |  |  |  |
| CC(C)S(=O)(=O)c1cccc(NC(=O)c2cccnc2N2CCC3(CC2)CC3)c1 | 3.15 µM | > 399 µL/min/mg | 375 µL/min/mg | 4.29 µM | 4.48 µM |  |  |  |  |  |  |  |  |  |
| CC(C)(CO)S(=O)(=O)c1cccc(NC(=O)c2cccnc2N2CCC3(CC2)CC3)c1 | 31.6 µM | > 399 µL/min/mg | 154 µL/min/mg | 45.9 µM | 31.2 µM |  |  |  |  |  |  |  |  |  |
| O=C(Nc1cccc(S(=O)(=O)C2CCCC2)n1)c1ccc(NCCO)cc1N1CCC2(CC1)CC2 | 0.092 µM | > 399 µL/min/mg | > 399 µL/min/mg | 0.177 µM | 0.117 µM |  |  |  |  |  |  |  |  |  |
| O=C(Nc1cccc(S(=O)(=O)NC2CC2)c1)c1cccnc1N1CCC2(CC1)CC2 | 0.58 µM | > 399 µL/min/mg | > 399 µL/min/mg | 2.26 µM | 1.79 µM |  |  |  |  |  |  |  |  |  |
| CC1(C)CCN(c2ncccc2C(=O)Nc2cccc(S(=O)(=O)C3CCCC3)c2)CC1 | 1.25 µM | > 399 µL/min/mg | > 399 µL/min/mg | 2.72 µM | 2.14 µM |  |  |  |  |  |  |  |  |  |
